Where a name gives a salt, the structure may show the parent alone.
Target: human recombinant HDAC6 (Homo sapiens (Human), UniProt Q9UBN7)
Experiment: HDAC6 enzyme activity inhibition assay (HDAC Fluorimetric Drug Discovery Kit)
Format: biochemical
Details: for HDAC6 selectivity (fold): HDAC6 versus HDAC1; for IC50: human recombinant HDAC6, same protocol as HDAC1 test
Procedure: In order to examine the HDAC6 selectivity of the compounds of formula I of the present invention by HDAC1 and HDAC6 enzymatic activity inhibition assays, an experiment was performed using a conventional substance as a control.
HDAC enzyme activity was measured using a HDAC Fluorimetric Drug Discovery Kit (BML-AK511, 516, Enzo Life Science). For the HDAC1 enzyme activity test, human recombinant HDAC1 (BML-SE456) was used as an enzyme source, and Fluor de Lys®-“SIRT1 (BNL-KI177) was used as a substrate. A 5-fold dilution of the compound was seeded into a 96-well plate, and then 0.3 μg of the enzyme and 10 μM of the substrate were added to each well of the plate and allowed to react at 30 for 60 minutes. Then, Fluor de Lys®-Developer II (BML-KI176) was added thereto and allowed to react for 30 minutes, after which the fluorescence value (Ex 360, Em 460) was measured using a multi-plate reader (Flexstation 3, Molecular Device). The HDAC6 enzyme was tested using human recombinant HDAC6 (382180) (Calbiochem) according to the same protocol as the HDAC1 enzyme activity test method. Based on the resulting values, each IC50 value was calculated using GraphPad Prism4.0 program.

human recombinant HDAC6, sequence (Q9UBN7 whole entry): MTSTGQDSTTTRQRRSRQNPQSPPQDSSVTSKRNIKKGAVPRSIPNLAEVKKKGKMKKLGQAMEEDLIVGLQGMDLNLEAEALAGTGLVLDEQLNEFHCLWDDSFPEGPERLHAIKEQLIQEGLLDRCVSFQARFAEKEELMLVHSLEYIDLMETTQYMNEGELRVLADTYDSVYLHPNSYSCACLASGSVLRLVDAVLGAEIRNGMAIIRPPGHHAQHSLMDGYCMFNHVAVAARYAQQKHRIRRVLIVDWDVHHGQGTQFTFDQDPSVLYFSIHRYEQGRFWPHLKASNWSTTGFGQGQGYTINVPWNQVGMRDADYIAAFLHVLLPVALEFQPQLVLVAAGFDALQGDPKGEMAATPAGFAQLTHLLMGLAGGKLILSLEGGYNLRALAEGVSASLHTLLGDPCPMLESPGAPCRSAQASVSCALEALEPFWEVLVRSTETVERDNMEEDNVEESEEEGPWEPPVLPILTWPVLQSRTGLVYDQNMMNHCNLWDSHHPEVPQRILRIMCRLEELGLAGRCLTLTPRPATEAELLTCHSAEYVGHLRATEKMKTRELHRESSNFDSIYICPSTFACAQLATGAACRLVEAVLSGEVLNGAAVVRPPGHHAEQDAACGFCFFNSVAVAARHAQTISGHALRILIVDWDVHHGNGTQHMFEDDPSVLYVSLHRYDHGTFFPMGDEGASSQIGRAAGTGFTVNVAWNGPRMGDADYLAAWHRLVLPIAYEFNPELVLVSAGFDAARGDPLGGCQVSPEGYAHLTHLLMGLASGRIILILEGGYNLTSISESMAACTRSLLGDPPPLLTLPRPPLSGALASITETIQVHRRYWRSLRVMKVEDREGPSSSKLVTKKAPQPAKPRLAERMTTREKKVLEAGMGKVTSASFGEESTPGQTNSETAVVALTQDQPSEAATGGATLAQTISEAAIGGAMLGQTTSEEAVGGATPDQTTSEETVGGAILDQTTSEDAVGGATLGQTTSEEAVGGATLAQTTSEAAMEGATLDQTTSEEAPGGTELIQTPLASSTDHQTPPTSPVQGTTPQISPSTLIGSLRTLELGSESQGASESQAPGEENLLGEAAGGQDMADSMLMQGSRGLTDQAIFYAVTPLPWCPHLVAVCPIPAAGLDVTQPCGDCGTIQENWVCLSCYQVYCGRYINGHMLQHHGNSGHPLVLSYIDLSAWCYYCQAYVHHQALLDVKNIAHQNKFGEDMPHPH

Compound | HDAC6 selectivity (fold) | IC50 [nM]
CN(CCN1CCN(S(C)(=O)=O)CC1)S(=O)(=O)N(Cc1ccc(-c2nnc(C(F)F)o2)cc1)c1ccccc1 [Compound 11714, 2-((4-(((N-methyl-N-(2-(4-(methylsulfonyl)piperazin-1-yl)ethyl)sulfamoyl)(phenyl)amino)methyl))phenyl)-5-(difluoromethyl)-1,3,4-oxadiazole] | 616 | 162
CS(=O)(=O)N1CCN(S(=O)(=O)N(Cc2ccc(-c3nnc(C(F)(F)F)o3)cc2F)c2cccc(F)c2)CC1 [Compound 11310, N-(2-fluoro-4-(5-(trifluoromethyl)-1,3,4-oxadiazol-2-yl)benzyl)-N-(3-fluorophenyl)-4-(methylsulfonyl)piperazine-1-sulfonamide] | 1311 | 76
O=S(=O)(N1CCC2(CC1)CN(C1COC1)C2)N(Cc1ccc(-c2nnc(C(F)F)o2)cc1)c1ccccc1 [Compound 11788, N-(4-(5-(difluoromethyl)-1,3,4-oxadiazol-2-yl)benzyl)-2-(oxetan-3-yl)-N-phenyl-2,7-diazaspiro[3.5]nonane-7-sulfonamide] | 561 | 178
O=S(=O)(N1CCNCC1)N(Cc1ccc(-c2nnc(C(F)(F)F)o2)cc1F)c1cccnc1 [Compound 11321, N-(2-fluoro-4-(5-(trifluoromethyl)-1,3,4-oxadiazol-2-yl)benzyl)-N-(pyridin-3-yl)piperazine-1-sulfonamide Dihydrochloride] | 2249 | 44
CN1CCN(S(=O)(=O)N(Cc2ccc(-c3nnc(C(F)(F)F)o3)cc2F)c2ccccc2)CC1 [Compound 11298, N-(2-fluoro-4-(5-(trifluoromethyl)-1,3,4-oxadiazol-2-yl)benzyl)-4-methyl-N-phenylpiperazine-1-sulfonamide] | 1333 | 75
O=S(=O)(N1CCOCC1)N(Cc1ccc(-c2nnc(C(F)(F)F)o2)cc1)c1ccc(F)cc1 [Compound 11198, N-(4-fluorophenyl)-N-(4-(5-(trifluoromethyl)-1,3,4-oxadiazol-2-yl)benzyl)morpholine-4-sulfonamide] | 738 | 136
CC(C)C(=O)N1CCN(S(=O)(=O)N(Cc2ccc(-c3nnc(C(F)(F)F)o3)cc2F)c2ccccc2)CC1 [Compound 11296, N-(2-fluoro-4-(5-(trifluoromethyl)-1,3,4-oxadiazol-2-yl)benzyl)-4-isobutyryl-N-phenylpiperazine-1-sulfonamide] | 636 | 157
CS(=O)(=O)N1CCN(S(=O)(=O)N(Cc2ccc(-c3nnc(C(F)F)o3)cc2F)c2ccccc2)CC1 [Compound 11305, N-(4-(5-(difluoromethyl)-1,3,4-oxadiazol-2-yl)-2-fluorobenzyl)-4-(methylsulfonyl)-N-phenylpiperazine-1-sulfonamide] | 2620 | 38
CC(=O)N1CCN(S(=O)(=O)N(Cc2ccc(-c3nnc(C(F)(F)F)o3)cc2F)c2ccccc2)CC1 [Compound 11294, 4-acetyl-N-(2-fluoro-4-(5-(trifluoromethyl)-1,3,4-oxadiazol-2-yl)benzyl)-N-phenylpiperazine-1-sulfonamide] | 1411 | 71
C[C@@H]1CN(S(=O)(=O)N(Cc2ccc(-c3nnc(C(F)F)o3)cc2)c2ccccc2)C[C@H](C)N1C(=O)C(F)F [Compound 11644, (3S,5R)-4-(2,2-difluoroacetyl)-N-(4-(5-(difluoromethyl)-1,3,4-oxadiazol-2-yl)benzyl)-3,5-dimethyl-N-phenylpiperazine-1-sulfonamide] | 770 | 130
CC(C)N1CCN(S(=O)(=O)N(Cc2ccc(-c3nnc(C(F)F)o3)cc2F)c2ccccc2)CC1 [Compound 11308, N-(4-(5-(difluoromethyl)-1,3,4-oxadiazol-2-yl)-2-fluorobenzyl)-4-isopropyl-N-phenylpiperazine-1-sulfonamide] | 2168 | 46
CS(=O)(=O)N1CCN(S(=O)(=O)N(Cc2ccc(-c3nnc(C(F)F)o3)cc2F)c2cccnc2)CC1 [Compound 11319, N-(4-(5-(difluoromethyl)-1,3,4-oxadiazol-2-yl)-2-fluorobenzyl)-4-(methylsulfonyl)-N-(pyridin-3-yl)piperazine-1-sulfonamide] | 1464 | 68
CC(C)N1CCN(S(=O)(=O)N(Cc2ccc(-c3nnc(C(F)(F)F)o3)cc2F)c2ccccc2)CC1 [Compound 11300, N-(2-fluoro-4-(5-(trifluoromethyl)-1,3,4-oxadiazol-2-yl)benzyl)-4-isopropyl-N-phenylpiperazine-1-sulfonamide] | 861 | 116
CN1CCN(S(=O)(=O)N(Cc2ccc(-c3nnc(C(F)F)o3)cc2F)c2cccc(F)c2)CC1 [Compound 11316, N-(4-(5-(difluoromethyl)-1,3,4-oxadiazol-2-yl)-2-fluorobenzyl)-N-(3-fluorophenyl)-4-methylpiperazine-1-sulfonamide] | 4031 | 25
CC(=O)N1[C@H](C)CN(S(=O)(=O)N(Cc2ccc(-c3nnc(C(F)F)o3)cc2)c2ccccc2)C[C@@H]1C [Compound 11641, (3S,5R)-4-acetyl-N-(4-(5-(difluoromethyl)-1,3,4-oxadiazol-2-yl)benzyl)-3,5-dimethyl-N-phenylpiperazine-1-sulfonamide] | 2989 | 33
CCN1[C@H](C)CN(S(=O)(=O)N(Cc2ccc(-c3nnc(C(F)F)o3)cc2)c2ccccc2)C[C@@H]1C [Compound 11640, (3S,5R)—N-(4-(5-(difluoromethyl)-1,3,4-oxadiazol-2-yl)benzyl)-4-ethyl-3,5-dimethyl-N-phenylpiperazine-1-sulfonamide] | 946 | 105

Other lines, results leading:

HDAC6 selectivity (fold) | IC50 [nM] | Compound
142 | 705 | CC(=O)N1CCN(CCN(C)S(=O)(=O)N(Cc2ccc(-c3nnc(C(F)F)o3)cc2)c2ccccc2)CC1 [Compound 11713, 2-((4-(((N-methyl-N-(2-(4-acetylpiperazin-1-yl)ethyl)sulfamoyl)(phenyl)amino)methyl))phenyl)-5-(difluoromethyl)-1,3,4-oxadiazole]
3367 | 30 | CC(=O)N1CCN(S(=O)(=O)N(Cc2ccc(-c3nnc(C(F)F)o3)cc2F)c2cccc(F)c2)CC1 [Compound 11315, 4-acetyl-N-(4-(5-(difluoromethyl)-1,3,4-oxadiazol-2-yl)-2-fluorobenzyl)-N-(3-fluorophenyl)piperazine-1-sulfonamide]
3846 | 26 | O=S(=O)(N1CCN(C2COC2)CC1)N(Cc1ccc(-c2nnc(C(F)F)o2)cc1F)c1ccccc1 [Compound 11379, N-(4-(5-(difluoromethyl)-1,3,4-oxadiazol-2-yl)-2-fluorobenzyl)-4-(oxetan-3-yl)-N-phenylpiperazine-1-sulfonamide]
1188 | 84 | CC(=O)N1CCN(S(=O)(=O)N(Cc2ccc(-c3nnc(C(F)(F)F)o3)cc2F)c2cccc(F)c2)CC1 [Compound 11311, 4-acetyl-N-(2-fluoro-4-(5-(trifluoromethyl)-1,3,4-oxadiazol-2-yl)benzyl)-N-(3-fluorophenyl)piperazine-1-sulfonamide]
1911 | 52 | O=S(=O)(N1CCOCC1)N(Cc1ccc(-c2nnc(C(F)F)o2)cc1)c1ccc(F)cc1 [Compound 11199, N-(4-(5-(difluoromethyl)-1,3,4-oxadiazol-2-yl)benzyl)-N-(4-fluorophenyl)morpholine-4-sulfonamide]
1169 | 86 | CCN1CCN(S(=O)(=O)N(Cc2ccc(-c3nnc(C(F)(F)F)o3)cc2F)c2ccccc2)CC1 [Compound 11299, 4-ethyl-N-(2-fluoro-4-(5-(trifluoromethyl)-1,3,4-oxadiazol-2-yl)benzyl)-N-phenylpiperazine-1-sulfonamide]
751 | 133 | CCC(=O)N1CCN(S(=O)(=O)N(Cc2ccc(-c3nnc(C(F)(F)F)o3)cc2F)c2ccccc2)CC1 [Compound 11295, N-(2-fluoro-4-(5-(trifluoromethyl)-1,3,4-oxadiazol-2-yl)benzyl)-N-phenyl-4-propionylpiperazine-1-sulfonamide]
422 | 237 | O=S(=O)(N1CCN(C2CCC2)CC1)N(Cc1ccc(-c2nnc(C(F)F)o2)cc1)c1ccc(F)c(Cl)c1 [Compound 11652, N-(3-chloro-4-fluorophenyl)-4-cyclobutyl-N-(4-(5-(difluoromethyl)-1,3,4-oxadiazol-2-yl)benzyl)piperazine-1-sulfonamide]
805 | 124 | CS(=O)(=O)N1CCN(S(=O)(=O)N(Cc2ccc(-c3nnc(C(F)(F)F)o3)cc2F)c2ccccc2)CC1 [Compound 11297, N-(2-fluoro-4-(5-(trifluoromethyl)-1,3,4-oxadiazol-2-yl)benzyl)-4-(methylsulfonyl)-N-phenylpiperazine-1-sulfonamide]

Source: patent publication US10464911B2, “1,3,4-oxadiazole sulfamide derivative compounds as histone deacetylase 6 inhibitor, and the pharmaceutical composition comprising the same” (Chong Kun Dang Pharmaceutical Corp., priority 2015, dated 2019)
